The values below come from US7704995B2 (Exelixis, Inc., priority 2003, dated 2010).

As a reminder, the IC50 is the concentration needed to halve the response being measured.

The target of this assay is T1, Chk1 (Homo sapiens, UniProt O14757).
T1 construct: purchased Upstate Biotechnology
T1 sequence (O14757 1-476): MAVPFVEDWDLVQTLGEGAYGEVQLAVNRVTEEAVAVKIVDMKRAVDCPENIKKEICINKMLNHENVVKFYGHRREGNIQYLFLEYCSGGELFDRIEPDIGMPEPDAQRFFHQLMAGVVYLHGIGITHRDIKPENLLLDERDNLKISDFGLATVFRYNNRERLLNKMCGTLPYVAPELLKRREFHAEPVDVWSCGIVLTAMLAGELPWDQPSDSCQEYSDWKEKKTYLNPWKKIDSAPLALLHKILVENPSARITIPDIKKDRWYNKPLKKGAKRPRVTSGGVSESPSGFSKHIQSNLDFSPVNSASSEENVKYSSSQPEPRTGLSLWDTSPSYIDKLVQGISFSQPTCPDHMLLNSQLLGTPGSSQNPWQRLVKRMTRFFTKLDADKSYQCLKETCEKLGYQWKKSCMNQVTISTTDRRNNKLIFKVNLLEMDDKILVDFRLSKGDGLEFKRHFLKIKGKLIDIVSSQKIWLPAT
Description: Chk1 kinase assay: incorporation of γ-33P ATP into immobilized myelin basic protein. Format: biochemical. Conditions: Table 11; Chk1 only; read-out: Chk1 IC50. Summed up:
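Enzyme activity is measured as γ-33P transfer from ATP onto immobilized MBP over 1 h at room temperature, with Chk1 at 10 nM/10 μM unlabeled ATP and Chk2 at 20 nM/30 μM unlabeled ATP. Compounds are tested in 1% DMSO.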
Consider `CCN1CC[C@H](NC(=O)c2nc(-c3cccc(C(=O)NCc4ccccc4)c3)cnc2N)C1` [Example 700, 3-amino-N-[(3S)-1-ethylpyrrolidin-3-yl]-6-(3-{[(phenylmethyl)amino]carbonyl}phenyl)pyrazine-2-carboxamide], for which the IC50 was in the range of 50 to 1000 nM. For `Cn1nc(-c2nc(-c3cccc(C(=O)NCc4ccccc4)c3)cnc2N)nc1C1CCCCN1` (stereo not drawn) [Example 701, 3-[5-amino-6-(1-methyl-5-piperidin-2-yl-1H-1,2,4-triazol-3-yl)pyrazin-2-yl]-N-(phenylmethyl)benzamide], the concentration for half-maximal inhibition (IC50) is not below 10000 nM. As to `Cc1nc(-c2nc(-c3cccc(C(=O)NCc4ccccc4)c3)cnc2N)nn1-c1ccccn1` [Example 702, 3-[5-amino-6-(5-methyl-1-pyridin-2-yl-1H-1,2,4-triazol-3-yl)pyrazin-2-yl]-N-(phenylmethyl)benzamide], the IC50 was in the range of 1000 to 10000 nM. As for `Nc1ncc(-c2cccc(CO)c2)nc1-c1nc(C2CNCCO2)n[nH]1` (stereo not drawn) [Example 703, {3-[5-amino-6-(3-morpholin-2-yl-1H-1,2,4-triazol-5-yl)pyrazin-2-yl]phenyl}methanol], the figure is 50 to 1000 nM; as for `Nc1ncc(-c2cccc(CN[C@H]3CCc4ccccc43)c2)nc1-c1nc([C@H]2CCCNC2)n[nH]1` [Example 704, 5-(3-{[(1S)-2,3-dihydro-1H-inden-1-ylamino]methyl}phenyl)-3-{3-[(3S)-piperidin-3-yl]-1H-1,2,4-triazol-5-yl}pyrazin-2-amine], less than 50 nM; as for `Nc1ncc(-c2cccc(CN[C@H]3CCc4ccccc43)c2)nc1-c1nc([C@@H]2CCCNC2)n[nH]1` [Example 705, 5-(3-{[(1S)-2,3-dihydro-1H-inden-1-ylamino]methyl}phenyl)-3-{3-[(3R)-piperidin-3-yl]-1H-1,2,4-triazol-5-yl}pyrazin-2-amine], less than 50 nM. In the case of `CCN1CC[C@H](NC(=O)c2nc(-c3cccc(C(=O)N[C@H]4CCc5ccccc54)c3)cnc2N)C1` [Example 706, 3-amino-6-(3-{[(1S)-2,3-dihydro-1H-inden-1-ylamino]carbonyl}phenyl)-N-[(3S)-1-ethylpyrrolidin-3-yl]pyrazine-2-carboxamide], the IC50 was 50 to 1000 nM. Regarding `CCNc1ncc(-c2cccc(C(=O)N[C@H]3CCc4ccccc43)c2)nc1C(=O)N[C@H]1CCN(CC)C1` [Example 707, 6-(3-{[(1S)-2,3-dihydro-1H-inden-1-ylamino]carbonyl}phenyl)-3-(ethylamino)-N-[(3S)-1-ethylpyrrolidin-3-yl]pyrazine-2-carboxamide], the IC50 was not below 10000 nM. `Nc1ncc(-c2cccc(C(=O)N[C@H]3c4ccccc4C[C@H]3O)c2)nc1C(=O)N[C@H]1CCNC1` [Example 708, 3-amino-6-[3-({[(1S,2R)-2-hydroxy-2,3-dihydro-1H-inden-1-yl]amino}carbonyl)phenyl]-N-[(3S)-pyrrolidin-3-yl]pyrazine-2-carboxamide]: the half-maximal inhibitory concentration (IC50) is 50 to 1000 nM.

As for `CC(C)(C)OC(=O)N1CC[C@H](NC(=O)c2nc(-c3cccc(C(=O)N[C@H]4CCc5ccccc54)c3)cnc2N)C1` [Example 709, 1,1-dimethylethyl (3S)-3-({[3-amino-6-(3-{[(1S)-2,3-dihydro-1H-inden-1-ylamino]carbonyl}phenyl)pyrazin-2-yl]carbonyl}amino)pyrrolidine-1-carboxylate], the IC50 was not below 10000 nM. The same measure for `C[C@@H](NC(=O)c1cccc(-c2cnc(N)c(C(=O)N[C@H]3CCN(C(=O)OC(C)(C)C)C3)n2)c1)c1ccccc1` [Example 710, 1,1-dimethylethyl (3S)-3-[({3-amino-6-[3-({[(1R)-1-phenylethyl]amino}carbonyl)phenyl]pyrazin-2-yl}carbonyl)amino]pyrrolidine-1-carboxylate]: not below 10000 nM; for `CC(C)(C)OC(=O)N1CC[C@H](NC(=O)c2nc(-c3cccc(C(=O)N4CCc5ccccc5C4)c3)cnc2N)C1` [Example 711, 1,1-dimethylethyl (3S)-3-[({3-amino-6-[3-(3,4-dihydroisoquinolin-2(1H)-ylcarbonyl)phenyl]pyrazin-2-yl}carbonyl)amino]pyrrolidine-1-carboxylate]: not below 10000 nM. As for `CC(C)(C)OC(=O)N1CC[C@H](NC(=O)c2nc(-c3cccc(C(=O)NCCc4ccccc4)c3)cnc2N)C1` [Example 712, 1,1-dimethylethyl (3S)-3-({[3-amino-6-(3-{[(2-phenylethyl)amino]carbonyl}phenyl)pyrazin-2-yl]carbonyl}amino)pyrrolidine-1-carboxylate], the figure is not below 10000 nM; as for `C[C@H](NC(=O)c1cccc(-c2cnc(N)c(C(=O)N[C@H]3CCN(C(=O)OC(C)(C)C)C3)n2)c1)c1ccccc1` [Example 713, 1,1-dimethylethyl (3S)-3-[({3-amino-6-[3-({[(1S)-1-phenylethyl]amino}carbonyl)phenyl]pyrazin-2-yl}carbonyl)amino]pyrrolidine-1-carboxylate], 1000 to 10000 nM. The same measure for `Nc1ncc(-c2cccc(C(=O)N3CCc4ccccc4C3)c2)nc1C(=O)N[C@H]1CCNC1` [Example 714, 3-amino-6-[3-(3,4-dihydroisoquinolin-2(1H)-ylcarbonyl)phenyl]-N-[(3S)-pyrrolidin-3-yl]pyrazine-2-carboxamide]: 50 to 1000 nM; for `Nc1ncc(-c2cccc(C(=O)NCCc3ccccc3)c2)nc1C(=O)N[C@H]1CCNC1` [Example 715, 3-amino-6-(3-{[(2-phenylethyl)amino]carbonyl}phenyl)-N-[(3S)-pyrrolidin-3-yl]pyrazine-2-carboxamide]: 50 to 1000 nM; for `C[C@H](NC(=O)c1cccc(-c2cnc(N)c(C(=O)N[C@H]3CCNC3)n2)c1)c1ccccc1` [Example 717, 3-amino-6-[3-({[(1S)-1-phenylethyl]amino}carbonyl)phenyl]-N-[(3S)-pyrrolidin-3-yl]pyrazine-2-carboxamide]: 50 to 1000 nM. Turning to `CCNNC(=N)c1nc(-c2cccc(C(=O)NC3CCc4ccccc43)c2)cnc1N` (stereo not drawn) [Example 718, 3-{5-amino-6-[(2-ethylhydrazino)(imino)methyl]pyrazin-2-yl}-N-(2,3-dihydro-1H-inden-1-yl)benzamide], the IC50 was 1000 to 10000 nM. `CNNC(=N)c1nc(-c2cccc(C(=O)N[C@H]3CCc4ccccc43)c2)cnc1N` [Example 719, 3-{5-amino-6-[imino(2-methylhydrazino)methyl]pyrazin-2-yl}-N-[(1S)-2,3-dihydro-1H-inden-1-yl)benzamide]: the IC50 was 1000 to 10000 nM. The same measure for `Cn1nc(-c2nc(-c3cccc(C(=O)N[C@H]4CCc5ccccc54)c3)cnc2N)nc1C1CCCN(C(=O)OCc2ccccc2)C1` (stereo partly drawn) [Example 721, phenylmethyl 3-{3-[3-amino-6-(3-{[(1S)-2,3-dihydro-1H-inden-1-ylamino]carbonyl}phenyl)pyrazin-2-yl]-1-methyl-1H-1,2,4-triazol-5-yl}piperidine-1-carboxylate]: not below 10000 nM; for `CCn1nc(-c2nc(-c3cccc(C(=O)N[C@H]4CCc5ccccc54)c3)cnc2N)nc1C1CCCN(C(=O)OCc2ccccc2)C1` (stereo partly drawn) [Example 722, phenylmethyl 3-{3-[3-amino-6-(3-{[(1S)-2,3-dihydro-1H-inden-1-ylamino]carbonyl}phenyl)pyrazin-2-yl]-1-ethyl-1H-1,2,4-triazol-5-yl}piperidine-1-carboxylate]: not below 10000 nM.
